Experiments:
Format in all cases: cell-based
[1] = biological target: T1, N-formyl peptide receptor 2 (Homo sapiens) (UniProt P25090); assay: Agonist activity at ALX/FPR2 in human THP1 cells harboring NF-kB-Luc assessed as inhibition of LPS-induced NFkB signalling activation by measuring IFNgamma secretion at 10^-9 M pretreated for 30 mins followed by LPS stimulation for 24 hrs by electrochemiluminescence assay; design: scale not given: the % may be the effect or the level left
T1 sequence (whole entry): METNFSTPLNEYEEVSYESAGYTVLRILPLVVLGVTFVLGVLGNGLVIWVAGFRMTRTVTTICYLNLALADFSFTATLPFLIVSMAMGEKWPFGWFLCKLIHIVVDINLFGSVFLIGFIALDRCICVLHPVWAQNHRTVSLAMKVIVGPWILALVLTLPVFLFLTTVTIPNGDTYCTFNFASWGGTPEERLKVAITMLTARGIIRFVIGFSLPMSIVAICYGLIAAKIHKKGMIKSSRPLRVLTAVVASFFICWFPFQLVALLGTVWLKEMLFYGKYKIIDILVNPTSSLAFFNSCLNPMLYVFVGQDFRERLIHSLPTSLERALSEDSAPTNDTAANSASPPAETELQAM

[2] = biological target: T2, N-formyl peptide receptor 2 (Homo sapiens, UniProt P25090); assay: Agonist activity at ALX/FPR2 in human THP1 cells harboring NF-kB-Luc assessed as inhibition of LPS-induced NFkB signalling activation by measuring reduction in IL-12p70 secretion pretreated for 30 mins followed by LPS stimulation for 24 hrs by electrochemiluminescence assay; settings: read-out: IC50
T2 sequence (P25090 whole entry): T1 sequence (whole entry)

[3] = biological target: T1, N-formyl peptide receptor 2 (Homo sapiens); assay: Agonist activity at ALX/FPR2 in human THP1 cells harboring NF-kB-Luc assessed as inhibition of LPS-induced NFkB signalling activation by measuring NF-kB activation level at 10^-7 M pretreated for 30 mins followed by LPS stimulation for 24 hrs by luciferase reporter gene assay; design: scale not given: the % may be the effect or the level left
[4] = biological target: T1, N-formyl peptide receptor 2 (Homo sapiens); assay: Agonist activity at ALX/FPR2 in human THP1 cells harboring NF-kB-Luc assessed as inhibition of LPS-induced NFkB signalling activation by measuring NF-kB activation level at 10^-12 M pretreated for 30 mins followed by LPS stimulation for 24 hrs by luciferase reporter gene assay; design: scale not given: the % may be the effect or the level left
[5] = biological target: T1, N-formyl peptide receptor 2 (Homo sapiens); assay: Agonist activity at ALX/FPR2 in human THP1 cells harboring NF-kB-Luc assessed as inhibition of LPS-induced NFkB signalling activation by measuring IFNgamma secretion at 10^-7 M pretreated for 30 mins followed by LPS stimulation for 24 hrs by electrochemiluminescence assay; design: scale not given: the % may be the effect or the level left
[6] = Cytotoxicity against mouse J774.1 cells assessed as cell viability by MTS assay relative to control; settings: read-out: Activity
[7] = biological target: T1, N-formyl peptide receptor 2 (Homo sapiens); assay: Agonist activity at ALX/FPR2 in human THP1 cells harboring NF-kB-Luc assessed as inhibition of LPS-induced NFkB signalling activation by measuring IL-12p70 secretion at 10^-9 M pretreated for 30 mins followed by LPS stimulation for 24 hrs by electrochemiluminescence assay; design: scale not given: the % may be the effect or the level left
[8] = biological target: T1, N-formyl peptide receptor 2 (Homo sapiens); assay: Agonist activity at ALX/FPR2 in human THP1 cells harboring NF-kB-Luc assessed as inhibition of LPS-induced NFkB signalling activation by measuring IL-6 secretion at 10^-7 M pretreated for 30 mins followed by LPS stimulation for 24 hrs by electrochemiluminescence assay; design: scale not given: the % may be the effect or the level left
[9] = biological target: T1, N-formyl peptide receptor 2 (Homo sapiens); assay: Agonist activity at ALX/FPR2 in human THP1 cells harboring NF-kB-Luc assessed as inhibition of LPS-induced NFkB signalling activation by measuring IL-12p70 secretion at 10^-11 M pretreated for 30 mins followed by LPS stimulation for 24 hrs by electrochemiluminescence assay; design: scale not given: the % may be the effect or the level left
[10] = biological target: T1, N-formyl peptide receptor 2 (Homo sapiens); assay: Agonist activity at ALX/FPR2 in human THP1 cells harboring NF-kB-Luc assessed as inhibition of LPS-induced NFkB signalling activation by measuring NF-kB activation level at 10^-9 M pretreated for 30 mins followed by LPS stimulation for 24 hrs by luciferase reporter gene assay; design: scale not given: the % may be the effect or the level left
[11] = biological target: T1, N-formyl peptide receptor 2 (Homo sapiens); assay: Agonist activity at ALX/FPR2 in human THP1 cells harboring NF-kB-Luc assessed as inhibition of LPS-induced NFkB signalling activation by measuring IL-1beta secretion at 10^-7 M pretreated for 30 mins followed by LPS stimulation for 24 hrs by electrochemiluminescence assay; design: scale not given: the % may be the effect or the level left
[12] = biological target: T1, N-formyl peptide receptor 2 (Homo sapiens); assay: Agonist activity at ALX/FPR2 in human THP1 cells harboring NF-kB-Luc assessed as inhibition of LPS-induced NFkB signalling activation by measuring NF-kB activation level at 10^-10 M pretreated for 30 mins followed by LPS stimulation for 24 hrs by luciferase reporter gene assay; design: scale not given: the % may be the effect or the level left
[13] = biological target: T2, N-formyl peptide receptor 2; assay: Agonist activity at ALX/FPR2 in human THP1 cells harboring NF-kB-Luc assessed as inhibition of LPS-induced NFkB signalling activation by measuring reduction in IL-6 secretion pretreated for 30 mins followed by LPS stimulation for 24 hrs by electrochemiluminescence assay; settings: read-out: IC50
[14] = biological target: T1, N-formyl peptide receptor 2 (Homo sapiens); assay: Agonist activity at ALX/FPR2 in human THP1 cells harboring NF-kB-Luc assessed as inhibition of LPS-induced NFkB signalling activation by measuring TNFalpha secretion at 10^-9 M pretreated for 30 mins followed by LPS stimulation for 24 hrs by electrochemiluminescence assay; design: scale not given: the % may be the effect or the level left
[15] = biological target: T1, N-formyl peptide receptor 2 (Homo sapiens); assay: Agonist activity at ALX/FPR2 in human THP1 cells harboring NF-kB-Luc assessed as inhibition of LPS-induced NFkB signalling activation by measuring IL-12p70 secretion at 10^-7 M pretreated for 30 mins followed by LPS stimulation for 24 hrs by electrochemiluminescence assay; design: scale not given: the % may be the effect or the level left
[16] = biological target: T1, N-formyl peptide receptor 2 (Homo sapiens); assay: Agonist activity at ALX/FPR2 in human THP1 cells harboring NF-kB-Luc assessed as inhibition of LPS-induced NFkB signalling activation by measuring IFNgamma secretion at 10^-11 M pretreated for 30 mins followed by LPS stimulation for 24 hrs by electrochemiluminescence assay; design: scale not given: the % may be the effect or the level left
[17] = biological target: T1, N-formyl peptide receptor 2 (Homo sapiens); assay: Agonist activity at ALX/FPR2 in human THP1 cells harboring NF-kB-Luc assessed as inhibition of LPS-induced NFkB signalling activation by measuring TNFalpha secretion at 10^-7 M pretreated for 30 mins followed by LPS stimulation for 24 hrs by electrochemiluminescence assay; design: scale not given: the % may be the effect or the level left
[18] = species on record: Homo sapiens; assay: Activation of Luc-fused NFkB (unknown origin) expressed in non-stimulated human THP1 cells assessed as relative luminescence unit at 10^-9 M after 24 hrs by luciferase reporter gene assay (reference value: 100%)
[19] = biological target: T1, N-formyl peptide receptor 2 (Homo sapiens); assay: Agonist activity at ALX/FPR2 in human THP1 cells harboring NF-kB-Luc assessed as inhibition of LPS-induced NFkB signalling activation by measuring IL-6 secretion at 10^-11 M pretreated for 30 mins followed by LPS stimulation for 24 hrs by electrochemiluminescence assay; design: scale not given: the % may be the effect or the level left
[20] = biological target: T1, N-formyl peptide receptor 2 (Homo sapiens); assay: Agonist activity at ALX/FPR2 in human THP1 cells harboring NF-kB-Luc assessed as inhibition of LPS-induced NFkB signalling activation by measuring IL-1beta secretion at 10^-9 M pretreated for 30 mins followed by LPS stimulation for 24 hrs by electrochemiluminescence assay; design: scale not given: the % may be the effect or the level left
[21] = biological target: T1, N-formyl peptide receptor 2 (Homo sapiens); assay: Agonist activity at ALX/FPR2 in human THP1 cells harboring NF-kB-Luc assessed as inhibition of LPS-induced NFkB signalling activation by measuring NF-kB activation level at 10^-8 M pretreated for 30 mins followed by LPS stimulation for 24 hrs by luciferase reporter gene assay; design: scale not given: the % may be the effect or the level left

Activity [1] [%] | IC50 [2] [nM] | Activity [3] [%] | Activity [4] [%] | Activity [5] [%] | Activity [7] [%] | Activity [8] [%] | Activity [9] [%] | Activity [10] [%] | Activity [11] [%] | Activity [12] [%] | IC50 [13] [nM] | Activity [14] [%] | Activity [15] [%] | Activity [16] [%] | Activity [17] [%] | Activity [19] [%] | Activity [20] [%] | SMILES | viability [6] [%] | Activity [18] [%] | further results
68.4 | 1 | 82.2 | 88.2 | 129 | 61.4 | 64.9 | 65.1 | 80.3 | 67.4 | 79.7 | 12 | 80.9 | 138 | 69.1 | 86.8 | 69 | 57.8 | CCCCC[C@H](O)c1nc(-c2ccccc2)n(-c2ccccc2)c1/C=C/[C@@H](O)[C@@H](O)CCCC(=O)OC | 95 to 100 | 1.6 | Activity [21]: 80.4%
36.1 | 11.8 | 76 | 95.3 | 32 | 37.1 | 1.7 | 25.7 | 84.2 | 5.7 | 85.6 | 1.7 | 16.9 | 29.6 | 30.3 | 29.5 | 2.6 | 4.3 | CCCCC[C@H](O)/C=C/C=C\C=C\C=C\[C@@H](O)[C@@H](O)CCCC(=O)O [LIPOXIN A4] | 95 to 100 | 1.5 | Activity [21]: 83.3%
71.4 | 10 | 88.2 | 99.5 | 95 | 68.3 | 83.7 | 67.7 | 85.2 | 57.7 | 91.2 | 0.5 | 68.6 | 86.2 | 79.1 | 78.1 | 58.7 | 50.3 | CCCCC[C@@H](O)c1nc(-c2ccccc2)n(-c2ccccc2)c1/C=C/[C@@H](O)[C@@H](O)CCCC(=O)OC | 95 to 100 | 1.5 | Activity [21]: 84.4%

— ChEMBL document CHEMBL4382216, “Asymmetric synthesis and biological evaluation of imidazole- and oxazole-containing synthetic lipoxin A4 mimetics (sLXms)” (Eur J Med Chem, 2019)
